Data on 20 molecules can be found in patent US20180338980A1, “AROMATIC SULFONAMIDE DERIVATIVES” (BAYER PHARMA AKTIENGESELLSCHAFT, priority 2015, published 2018).

Each structure is given as a SMILES string. Where only a bound is given, the exact number is not on record here.

In general, IC50 refers to the midpoint of a concentration-inhibition curve.

Experiment [1] deals with T1, P2X4 (Homo sapiens, UniProt Q99571).
T1 sequence (Q99571 1-388): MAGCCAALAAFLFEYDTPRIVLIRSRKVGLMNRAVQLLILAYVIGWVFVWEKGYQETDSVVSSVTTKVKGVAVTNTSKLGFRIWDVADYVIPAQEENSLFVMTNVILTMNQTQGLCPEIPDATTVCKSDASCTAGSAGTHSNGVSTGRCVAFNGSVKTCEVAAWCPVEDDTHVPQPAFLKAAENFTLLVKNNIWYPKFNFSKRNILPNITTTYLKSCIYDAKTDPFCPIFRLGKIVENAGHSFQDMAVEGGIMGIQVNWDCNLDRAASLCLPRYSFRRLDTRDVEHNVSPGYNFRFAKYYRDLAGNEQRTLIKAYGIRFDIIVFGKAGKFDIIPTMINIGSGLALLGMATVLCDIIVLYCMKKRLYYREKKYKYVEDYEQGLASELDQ
The experiment can be described thus: Assay A: human P2X4 receptor cell line, FLIPR calcium assay (Fluo-8, agonist Bz-ATP at EC80). The class given is cell-based. Further details: host or cells: HEK 293 (recombinant, constitutively expressing; with mitochondrial photina in Assay B). To be noted: HEK human P2X4 cells, Fluo-8 FLIPR; for IC50: Bz-ATP at EC80, average values; for Emax: percentage of maximal inhibition, read-out: human P2X4 Assay A avg Efficacy. As for the experimental part: A fluorescent imaging plate reader (FLEX/FLIPR station; Molecular Devices) was used to monitor intracellular calcium levels using the calcium-chelating dye Fluo-8 (Molecular Probes). […] Cells expressing purinergic receptors human P2X4 (HEK human P2X4: PerkinElmer, Product No.: AX-015-PCF) were plated at a density of 20,000 cells/well in poly-D-lysine-coated 384-well plates approximately 20 hours before beginning the assay. On the day of the assay, the medium was removed and 30 μl of dye buffer (Hank's balanced salt solution, 10 mM HEPES, 1.8 mM CaCl2), 1 mM MgCl2, 2 mM probenecid, 5 mM D-glucose monohydrate, 5 μM Fluo-8, pH=7.4) was added for 30 min at […] and 5% CO2. The antagonist in probenecid buffer (Hank's balanced salt solution, 10 mM HEPES, 1.8 mM CaCl2, 1 mM MgCl2, 2 mM probenecid, 5 mM D-glucose monohydrate, pH=7.4) was added in a volume of 10 μl and allowed to incubate for 30 min at room temperature. The final assay DMSO concentration is 0.5%. The agonist, Bz-ATP, is added in a volume of 10 μl at a concentration representing the EC80 value. The fluorescence was measured for an interval of 120 sec at 2 sec intervals and analyzed based on the increase in peak relative fluorescence units (RFU) compared to the basal fluorescence. Peak fluorescence was used to determine the response to agonist obtained at each concentration of antagonist by the following equation:
% Response=100*(RFU(drug)−RFU(control))/(RFU(DMSO)−RFU(control))
The compounds were tested in triplicates per plate and mean values were plotted in Excel XLFit to determine IC50 values, percentage of maximal inhibition and the Hill coefficients.

For experiment [2], the target named is T1, P2X4. Nature of the experiment: Assay B: human P2X4 receptor cell line, mitochondrial photina luminescence (agonist Bz-ATP at EC50). It is filed as cell-based. Also noted: host or cells: HEK 293 (recombinant, constitutively expressing; with mitochondrial photina in Assay B). To be noted: HEK human P2X4 cell line, photina luminescence, agonist Bz-ATP at EC50, average; for Emax: read-out: human P2X4 Assay B avg Efficacy. Put shortly:
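Bz-ATP at its EC50 activates human P2X4 stably expressed in a cell line that also carries the calcium-sensitive photoprotein mitochondrial photina (coelenterazine cofactor). Light emitted on calcium influx is measured straight away in a luminometer. Reduced luminescence indicates antagonism.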

Turning to `NS(=O)(=O)c1cc(NC(=O)Cc2ccccc2Cl)ccc1Oc1cc(Cl)ccn1` [Example 039, 2-(2-chlorophenyl)-N-{4-[(4-chloropyridin-2-yl)oxy]-3-sulfamoylphenyl}acetamide], at P2X4 [1], the IC50 came out at 0.007 µM and the Emax stood at 89%. Also, on P2X4 [2], the IC50 is 0.14 µM and the Emax came out at 65%.

For the molecule `NS(=O)(=O)c1cc(NC(=O)Cc2ccccc2Cl)ccc1Oc1ccc(N2CCCC2=O)cc1` [Example 043, 2-(2-Chlorophenyl)-N-{4-[4-(2-oxopyrrolidin-1-yl)phenoxy]-3-sulfamoylphenyl}acetamide], the IC50 came out at 0.515 µM on P2X4 [1] and 0.671 µM at P2X4 [2]. For the same molecule, the Emax on P2X4 [1] turned out to be 85%; at P2X4 [2] it was 68%.

As to `N#Cc1cc(Oc2ccc(NC(=O)Cc3ccccc3Cl)cc2S(N)(=O)=O)ccc1F` [Example 047, 2-(2-Chlorophenyl)-N-[4-(3-cyano-4-fluorophenoxy)-3-sulfamoylphenyl]acetamide], on P2X4 [1], the half-maximal inhibitory concentration (IC50) amounted to 0.007 µM and the Emax is 69%. Moreover, at P2X4 [2], the IC50 was determined as 0.862 µM and the Emax was determined as 57%.

Consider `NS(=O)(=O)c1cc(NC(=O)Cc2ccccc2Cl)ccc1Oc1cccc(N2CCCC2=O)c1` [Example 050, 2-(2-Chlorophenyl)-N-{4-[3-(2-oxopyrrolidin-1-yl)phenoxy]-3-sulfamoylphenyl}acetamide], for which, on P2X4 [1], the IC50 stood at 0.005 µM and the Emax came to 94%. In addition, on P2X4 [2], the IC50 is 0.112 µM and the Emax amounted to 87%.

In the case of `NS(=O)(=O)c1cc(NC(=O)Cc2ccccc2Cl)ccc1Oc1cccc(N2CCOC2=O)c1` [Example 051, 2-(2-Chlorophenyl)-N-{4-[3-(2-oxo-1,3-oxazolidin-3-yl)phenoxy]-3-sulfamoylphenyl}acetamide], the values for the IC50 on P2X4 [1] and on P2X4 [2] were 0.02 µM and 0.124 µM, respectively. The Emax on P2X4 [1] is 87%; at P2X4 [2] it was 83%.

For the molecule `NS(=O)(=O)c1cc(NC(=O)Cc2ccccc2Cl)ccc1Oc1cccc(C(=O)N2CCOCC2)c1` [Example 052, 2-(2-Chlorophenyl)-N-{4-[3-(morpholin-4-ylcarbonyl)phenoxy]-3-sulfamoylphenyl}acetamide], the Emax on P2X4 [1] came to 85%; at P2X4 [2], 66%.

Consider `CC1(COc2ccc(NC(=O)Cc3ccccc3Cl)cc2S(N)(=O)=O)CCOCC1` [Example 053, 2-(2-Chlorophenyl)-N-{4-[(4-methyltetrahydro-2H-pyran-4-yl)methoxy]-3-sulfamoylphenyl}acetamide], for which the IC50 at P2X4 [1] stood at 0.197 µM; on P2X4 [2], 0.859 µM. Besides, the Emax on P2X4 [1] was 90%; at P2X4 [2], 84%.

As for `NS(=O)(=O)c1cc(NC(=O)Cc2ccccc2Cl)ccc1OCC1(F)CCOCC1` [Example 054, 2-(2-chlorophenyl)-N-{4-[(4-fluorotetrahydro-2H-pyran-4-yl)methoxy]-3-sulfamoylphenyl}acetamide], at P2X4 [1], the IC50 was 0.068 µM and the Emax was found to be 94%. At P2X4 [2], the IC50 was determined as 0.578 µM and the Emax came to 84%.

Regarding `NS(=O)(=O)c1cc(NC(=O)Cc2ccccc2Cl)ccc1Oc1cccc(Br)c1` [Example 059, N-[4-(3-Bromophenoxy)-3-sulfamoylphenyl]-2-(2-chlorophenyl)acetamide], on P2X4 [1], the IC50 was 0.045 µM and the Emax was 85%. In addition, at P2X4 [2], the IC50 worked out at 0.075 µM and the Emax was 70%.

With `Cc1nc(-c2cccc(Oc3ccc(NC(=O)Cc4ccccc4Cl)cc3S(N)(=O)=O)c2)cs1` [Example 061, 2-(2-Chlorophenyl)-N-{4-[3-(2-methyl-1,3-thiazol-4-yl)phenoxy]-3-sulfamoylphenyl}acetamide], at P2X4 [1], the IC50 came out at 0.053 µM and the Emax stood at 88%. Further, on P2X4 [2], the IC50 worked out at 0.147 µM and the Emax amounted to 72%.

In the case of `NS(=O)(=O)c1cc(NC(=O)Cc2ccccc2Cl)ccc1Oc1ccc(C2CCC(=O)N2)cc1` (stereo not shown) [Example 062, 2-(2-Chlorophenyl)-N-{4-[4-(5-oxopyrrolidin-2-yl)phenoxy]-3-sulfamoylphenyl}acetamide], at P2X4 [1], the IC50 came out at 0.56 µM and the Emax was 95%. In addition, at P2X4 [2], the IC50 was 0.455 µM and the Emax came to 70%.

For `NS(=O)(=O)c1cc(NC(=O)Cc2ccccc2Cl)ccc1Oc1ccc(N2CCOC2=O)cc1` [Example 063, 2-(2-chlorophenyl)-N-{4-[4-(2-oxo-1,3-oxazolidin-3-yl)phenoxy]-3-sulfamoylphenyl}acetamide], on P2X4 [1], the IC50 was 0.09 µM and the Emax amounted to 82%. In addition, at P2X4 [2], the IC50 turned out to be 0.221 µM and the Emax came to 70%.

With `NS(=O)(=O)c1cc(NC(=O)Cc2ccccc2Cl)ccc1Oc1ccccc1Cl` [Example 065, N-[4-(2-Chlorophenoxy)-3-sulfamoylphenyl]-2-(2-chlorophenyl)acetamide], the Emax at P2X4 [1] was determined as 81%; on P2X4 [2] it was 70%.

Take `NS(=O)(=O)c1cc(NC(=O)Cc2ccccc2Cl)ccc1Oc1ccc(Cl)cc1` [Example 066, N-[4-(4-Chlorophenoxy)-3-sulfamoylphenyl]-2-(2-chlorophenyl)acetamide]: at P2X4 [1], the IC50 is above 25 µM and the Emax is 51%. At P2X4 [2], the IC50 turned out to be 0.129 µM and the Emax is 46%.

Regarding `NS(=O)(=O)c1cc(NC(=O)Cc2ccccc2)ccc1Oc1ccc(Cl)cc1` [Example 077, N-[4-(4-Chlorophenoxy)-3-sulfamoylphenyl]-2-phenylacetamide], at P2X4 [1], the IC50 amounted to 8.34 µM and the Emax is 54%. On P2X4 [2], the IC50 stood at 0.201 µM and the Emax was found to be 53%.

Regarding `NS(=O)(=O)c1cc(NC(=O)Cc2ccccc2Cl)ccc1Oc1cnc(Cl)nc1` [Example 079], the Emax at P2X4 [1] was found to be 54%; at P2X4 [2], 40%.

Consider `NS(=O)(=O)c1cc(NC(=O)Cc2ccccc2Cl)ccc1Oc1cncc(F)c1` [Example 080, 2-(2-Chlorophenyl)-N-{4-[(5-fluoropyridin-3-yl)oxy]-3-sulfamoylphenyl}acetamide], for which the IC50 on P2X4 [1] came out at 0.044 µM; on P2X4 [2] it was 0.14 µM. Further, the Emax was found to be 65% at P2X4 [1] and 51% at P2X4 [2].

As for `NS(=O)(=O)c1cc(NC(=O)Cc2ccccc2Cl)ccc1Oc1ccc(Cl)nc1` [Example 081, 2-(2-Chlorophenyl)-N-{4-[(6-chloropyridin-3-yl)oxy]-3-sulfamoylphenyl}acetamide], on P2X4 [1], the IC50 was 0.065 µM and the Emax is 43%. Besides, at P2X4 [2], the IC50 was above 16 µM and the Emax is 36%.

Consider `NS(=O)(=O)c1cc(NC(=O)Cc2ccccc2Cl)c(Cl)cc1Oc1cccc(Cl)c1` [Example 082, N-[2-chloro-4-(3-chlorophenoxy)-5-sulfamoylphenyl]-2-(2-chlorophenyl)acetamide], for which the IC50 is above 25 µM on P2X4 [1] and above 50 µM on P2X4 [2]. Moreover, the values for the Emax at P2X4 [1] and on P2X4 [2] were 31% and 33%, respectively.

For the molecule `NS(=O)(=O)c1cc(NC(=O)Cc2cccc(F)c2Cl)c(Cl)cc1Oc1cccc(Cl)c1` [Example 083, N-[2-chloro-4-(3-chlorophenoxy)-5-sulfamoylphenyl]-2-(2-chloro-3-fluorophenyl)acetamide], at P2X4 [1], the IC50 was above 25 µM and the Emax stood at 39%. For the same molecule, the Emax on P2X4 [2] came to 35%.
